Data as given in patent US20250347685A1, “DONOR-ACCEPTOR CONJUGATED OLIGOELECTROLYTES FOR CELL LABELLING AND METHODS THEREOF” (National University of Singapore, priority 2021, published 2025).

Tests used:
[1] = Dynamic light scattering of liposome size and uniformity after COE addition; format: physicochemical; settings: 10 μM COE into 1 mg/mL SUV samples
Procedure: To identify whether COE treatment will alter the morphology of liposomes (e.g., inducing the fusion or fission of liposomes), dynamic light scattering (DLS) measurements with a lipid SUV model were employed (FIG. 16). The SUVs were obtained after extrusion using a 100 nm membrane. […] After addition of 10 μM COE-BBT into the 1 mg/mL SUV samples, the Z-average size is 104.8±32.65 nm with a PDI of 0.054.

[2] = COE intercalation into lipid bilayer of SUVs, emission measured with a fluorimeter; format: physicochemical; settings: in PBS
Procedure: Liposomes were prepared using the protocol as follows. Phospholipids (ex. POPC, POPE, and POPG) in chloroform solution were mixed to a proper molar ratio and dried under a gentle stream of nitrogen. The dried lipids were further desiccated in a vacuum overnight to obtain a thin lipid film. For preparing small unilamellar vesicles (SUVs), rehydration of the dried film was carried out by adding phosphate buffered saline (PBS) to a concentration of 5 mg mL-1, followed by incubation at 35° C. for 2 h under constant stirring at ˜300 rpm. Then, the vesicles were extruded using a 100 nm membrane at 45° C. 21 times to obtain SUV samples. Vesicles were kept at 4° C. until further use.
When mixing the SUVs with COE-BT, the COE will intercalate into the lipid bilayers. This is spontaneously driven by the electrostatic and hydrophobic interactions between the COEs and the lipids. As a result, a significant emission enhancement is observed. For example, relative to the COE-BT solution, the emission intensity of the SUV and COE-BT complexes increases more than 400 times between 600 to 630 nm. […] By adjusting different chemical structures, the COEs can achieve different emission wavelengths, ranging from “green”, “red”, to even “infrared” (FIGS. 14 & 15). The various color choices confer COE dyes with high compatibility in using multiple dyes concurrently.

SW480 exosomes = experiment: NanoAnalyzer (NanoFCM) flow analysis of dye-labelled SW480 exosomes and dye only controls; settings: for % Positive for dye: after purifying excess dyes using ultracentrifugation; for Number of particle counts, positive / Number of particle counts, total: dye only controls
Procedure: In another example, exosomes isolated from SW480 colon cancer cell lines and purified using size exclusion chromatography were kindly provided by NanoFCM (UK). The labelling and flow cytometry analysis were also carried out by the trained technicians at NanoFCM (UK). […] The mixture was left to incubate at room temperature for 30 min and then diluted 100 times using PBS before analysis on the NanoAnalyzer (NanoFCM). Detection of the exosomes was carried out on the small threshold settings (68-155 S16M-Exo) and analysis of the labelled population was done on the PC5 channel (Ex488/Em670). Dye control samples were prepared by replacing the 9 μL exosome solution with PBS, followed by the same steps as the exosome samples for flow analysis. The results were validated through at least two replicates. In a separate experiment, the labelled exosomes were also purified of excess dyes using standard ultracentrifugation methods before analyzing as per described above.

HCT 116 Exosomes = experiment: Flow cytometry of exosomes labelled with COE compound
Procedure: Exosome were prepared via the following protocol: Exosomes were purchased from ATCC, aliquoted and stored at −80° C. A single aliquot was removed from −80° C. and placed on ice. Exosomes were diluted 10 times in cell culture grade PBS. 8 μL of the exosome suspension was mixed with between […] of COE compound. This was placed on ice for 10-minutes before being diluted 100 times in PBS to an approximate final concentration of 6×10^6 particles/mL of exosomes and 25-1 nM of COE.
Samples were briefly vortexed and used for flow cytometry. Flow cytometry measurements were obtained by measuring the side scattering on the violet laser (x-axis) and by measuring fluorescent intensity (y-axis: λexcitation=405, 488 nm λemission=525, 690 nm). […] Using the COE compound, the exosomes can be stained with a low concentration of dye and can be used directly without additional purification.

Red blood cells = experiment: Flow cytometry of red blood cells from donor's blood labelled with dye; format: cell-based
Procedure: Red blood cells were obtained from donor's blood after removing the plasma via centrifugation. The RBC were either used fresh or stored for 22 days. […] The cells were incubated with the dyes for 10 min before centrifuging down at 700 g for 3 min to remove free dyes. The labelled cell pellet was then resuspended in 1 mL of PBS. The cells were then diluted 10× further in PBS before imaging on the 8-well ibidi chamber slides, and analysing for size and fluorescence on the flow cytometry (Cytoflex).

RBCs = experiment: Flow cytometry of COE-stained and unstained red blood cells mixed at various ratios; format: cell-based, Bovine
Procedure: RBCs (isolated from Bovine whole blood, Innovative Research, Inc.) were diluted 10 times from stock into PBS and centrifuged at 3,000 RPM for 5 minutes. The supernatant was removed, and the pellet was resuspended in PBS. This was repeated for a total of 3 times. The final pellet was resuspended into PBS to be 1% by volume. […] COE compound was added to the RBC suspension and was allowed to incubate for 20 min at RT. The RBC COE compound mixture was then centrifuged again at 3,000 RPM for 5 min. The supernatant was removed and the pellet resuspended in fresh PBS. COE compound stained and unstained RBCs were respectively mixed at various ratios by volume of 0:5, 1:4, 2:3, 3:2, 4:1 and 5:0. The resulting RBC mixtures were diluted 100 times in PBS for flow cytometry experiments.

SMILES	% Positive for dye (SW480 exosomes; 10 uM) [%]	% Positive for dye (SW480 exosomes; 20 uM) [%]	Number of particle counts, positive (SW480 exosomes; 10 uM)	Number of particle counts, total (SW480 exosomes; 10 uM)	% of events in Area of Interest (HCT 116 Exosomes; Exosome + COE) [%]	All Events/μL (HCT 116 Exosomes; Exosome + COE) [Events/μL]	Area of Interest Events/μL (HCT 116 Exosomes; Exosome + COE) [Events/μL]	% of events in Area of Interest (HCT 116 Exosomes; dye only, no exosomes) [%]	All Events/μL (HCT 116 Exosomes; dye only, no exosomes) [Events/μL]	Area of Interest Events/μL (HCT 116 Exosomes; dye only, no exosomes) [Events/μL]	also measured
C[N+](C)(C)CCCCCCOc1cc(/C=C/c2ccc(-c3ccc(-c4c5c(c(-c6ccc(-c7ccc(/C=C/c8cc(OCCCCCC[N+](C)(C)C)c(OCCCCCC[N+](C)(C)C)c(OCCCCCC[N+](C)(C)C)c8)cc7)s6)c6nsnc46)N=S=N5)s3)cc2)cc(OCCCCCC[N+](C)(C)C)c1OCCCCCC[N+](C)(C)C [COE-BBT]	–	–	–	–	–	–	–	–	–	–	PDI of SUVs after COE addition [1]: 0.054; Z-average size of SUVs after COE addition [1]: 104.8±32.65 nm; emission enhancement after mixing with SUVs (in words) [2]: same phenomenon is seen
C[N+](C)(C)CCCCCCOc1cc(/C=C/c2ccc(-c3ccc(-c4ccc(-c5ccc(-c6ccc(/C=C/c7cc(OCCCCCC[N+](C)(C)C)c(OCCCCCC[N+](C)(C)C)c(OCCCCCC[N+](C)(C)C)c7)cc6)s5)c5nonc45)s3)cc2)cc(OCCCCCC[N+](C)(C)C)c1OCCCCCC[N+](C)(C)C.[Br-].[Br-].[Br-].[Br-].[Br-].[Br-] [COE-BO]	43.10	47.60	2	181	–	–	–	–	–	–	Percentage + (positive events) (SW480 exosomes; labelled SW480 exosomes, 10 uM, N = 2): 66.55%
C[N+](C)(C)CCCCCCOc1cc(/C=C/c2ccc(-c3ccc(-c4ccc(-c5ccc(-c6ccc(/C=C/c7cc(OCCCCCC[N+](C)(C)C)c(OCCCCCC[N+](C)(C)C)c(OCCCCCC[N+](C)(C)C)c7)cc6)s5)cc4)s3)cc2)cc(OCCCCCC[N+](C)(C)C)c1OCCCCCC[N+](C)(C)C.[I-].[I-].[I-].[I-].[I-].[I-] [COE-Ben]	–	–	–	–	54.69	6071.19	3314.72	6.72	1480.33	99.48	–
C[N+](C)(C)CCCCCCOc1cc(/C=C/c2ccc(-c3ccc(-c4ccc(-c5ccc(-c6ccc(/C=C/c7cc(OCCCCCC[N+](C)(C)C)c(OCCCCCC[N+](C)(C)C)c(OCCCCCC[N+](C)(C)C)c7)cc6)cc5)cc4)cc3)cc2)cc(OCCCCCC[N+](C)(C)C)c1OCCCCCC[N+](C)(C)C.[I-].[I-].[I-].[I-].[I-].[I-] [COE-Quin]	–	–	–	–	63.71	6088.97	3878.99	7.98	1438.47	114.78	–
C[N+](C)(C)CCCCCCOc1cc(/C=C/c2ccc(/C=C/c3ccc(/C=C/c4ccc(/C=C/c5ccc(/C=C/c6cc(OCCCCCC[N+](C)(C)C)c(OCCCCCC[N+](C)(C)C)c(OCCCCCC[N+](C)(C)C)c6)cc5)cc4)cc3)cc2)cc(OCCCCCC[N+](C)(C)C)c1OCCCCCC[N+](C)(C)C.[I-].[I-].[I-].[I-].[I-].[I-] [COE-S6]	–	–	–	–	63.67	5113.31	3255.41	1.41	2909.37	41.08	artifact to the morphology of the RBC (FSC/SSC dot plots) (Red blood cells; 1 μM COE-S6): does not introduce an artifact; change in fluorescence of RBCs labelled with increasing dye concentrations (Red blood cells; histograms, FIG. 35 d-e): increase in fluorescence; homogeneity of RBC labelling (coefficient of variance of histogram data) (Red blood cells; versus Cell Mask Deep Red): more homogeneous and uniform; RBC + COE-S6 Events/μL (RBCs; stained to unstained RBCs 1:4): 207.2 Events/μL; RBC Events/μL (RBCs; stained to unstained RBCs 1:4): 891.58 Events/μL; total events/μL (RBCs; stained to unstained RBCs 1:4): 1098 events/μL; RBC + COE-S6 Events/μL (RBCs; stained to unstained RBCs 2:3): 312.27 Events/μL; RBC Events/μL (RBCs; stained to unstained RBCs 2:3): 812.03 Events/μL; total events/μL (RBCs; stained to unstained RBCs 2:3): 1124 events/μL; RBC + COE-S6 Events/μL (RBCs; stained to unstained RBCs 3:2): 767.09 Events/μL; RBC Events/μL (RBCs; stained to unstained RBCs 3:2): 470.71 Events/μL; total events/μL (RBCs; stained to unstained RBCs 3:2): 1237 events/μL; RBC + COE-S6 Events/μL (RBCs; stained to unstained RBCs 4:1): 1039.71 Events/μL; RBC Events/μL (RBCs; stained to unstained RBCs 4:1): 225.64 Events/μL; total events/μL (RBCs; stained to unstained RBCs 4:1): 1265 events/μL; RBC + COE-S6 Events/μL (RBCs; stained to unstained RBCs 5:0): 450.48 Events/μL; RBC Events/μL (RBCs; stained to unstained RBCs 5:0): 2.98 Events/μL; total events/μL (RBCs; stained to unstained RBCs 5:0): 453 events/μL
CCCCCCCCCCCCCCCCCCCCCC[N+]1=C(/C=C/C=C2/N(CCCCCCCCCCCCCC)c3ccccc3C2(C)C)C(C)(C)c2ccccc21.[I-] [PKH-26, reference compound]	22.00	19.90	636	637	–	–	–	–	–	–	–
